Laboratory results reported in ChEMBL document CHEMBL5212743, “Selectivity Literature for EUbOPEN Chemogenomics Library wave 3” (2023).
Each block holds one compound with its values, some of them ahead of it.

Experiments:
[1] = target: Calcium/calmodulin-dependent protein kinase type IV (Homo sapiens) (UniProt Q16566); settings: at 1 µM
[2] = target: T1, Mitogen-activated protein kinase 15 (Homo sapiens) (UniProt Q8TD08); settings: at 10 µM
T1 sequence (whole entry): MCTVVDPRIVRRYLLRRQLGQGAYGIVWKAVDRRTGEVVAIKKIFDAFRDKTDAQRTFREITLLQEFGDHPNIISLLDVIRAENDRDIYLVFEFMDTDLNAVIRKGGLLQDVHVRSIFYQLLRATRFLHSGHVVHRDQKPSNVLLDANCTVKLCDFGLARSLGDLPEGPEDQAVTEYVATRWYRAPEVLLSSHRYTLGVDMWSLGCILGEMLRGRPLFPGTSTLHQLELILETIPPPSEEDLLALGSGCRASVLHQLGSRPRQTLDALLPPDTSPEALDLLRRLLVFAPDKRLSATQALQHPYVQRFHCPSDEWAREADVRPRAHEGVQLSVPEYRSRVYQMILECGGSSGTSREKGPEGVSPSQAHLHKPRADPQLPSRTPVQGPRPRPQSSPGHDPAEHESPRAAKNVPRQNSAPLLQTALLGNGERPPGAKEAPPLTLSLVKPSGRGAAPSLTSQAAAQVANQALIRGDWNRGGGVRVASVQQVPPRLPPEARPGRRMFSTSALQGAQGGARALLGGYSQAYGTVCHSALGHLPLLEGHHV

[3] = target: Ephrin type-B receptor 2 (Homo sapiens, UniProt P29323)
[4] = target: T2, Serine/threonine-protein kinase Sgk1 (Homo sapiens) (UniProt O00141); settings: at 1 µM
T2 sequence (whole entry): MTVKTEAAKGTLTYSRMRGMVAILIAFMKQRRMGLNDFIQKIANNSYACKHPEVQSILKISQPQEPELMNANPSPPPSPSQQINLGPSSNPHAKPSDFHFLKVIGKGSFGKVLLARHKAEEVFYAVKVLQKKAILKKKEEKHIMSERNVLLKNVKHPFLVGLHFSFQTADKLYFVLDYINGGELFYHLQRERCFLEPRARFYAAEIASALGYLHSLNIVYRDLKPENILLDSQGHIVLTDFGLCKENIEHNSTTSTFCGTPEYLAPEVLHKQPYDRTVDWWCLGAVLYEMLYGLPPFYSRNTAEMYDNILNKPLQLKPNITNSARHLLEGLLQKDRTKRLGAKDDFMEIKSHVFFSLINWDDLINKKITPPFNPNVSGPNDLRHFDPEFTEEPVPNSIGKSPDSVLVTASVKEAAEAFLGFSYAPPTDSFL

[5] = target: Insulin receptor (Homo sapiens, UniProt P06213)
[6] = target: T3, Chromatin remodeling regulator CECR2 (Homo sapiens, UniProt Q9BXF3); test: Selectivity interaction (Cellular FRAP assay) EUB0000201c CECR2
Target sequence in this assay (Q9BXF3 whole entry): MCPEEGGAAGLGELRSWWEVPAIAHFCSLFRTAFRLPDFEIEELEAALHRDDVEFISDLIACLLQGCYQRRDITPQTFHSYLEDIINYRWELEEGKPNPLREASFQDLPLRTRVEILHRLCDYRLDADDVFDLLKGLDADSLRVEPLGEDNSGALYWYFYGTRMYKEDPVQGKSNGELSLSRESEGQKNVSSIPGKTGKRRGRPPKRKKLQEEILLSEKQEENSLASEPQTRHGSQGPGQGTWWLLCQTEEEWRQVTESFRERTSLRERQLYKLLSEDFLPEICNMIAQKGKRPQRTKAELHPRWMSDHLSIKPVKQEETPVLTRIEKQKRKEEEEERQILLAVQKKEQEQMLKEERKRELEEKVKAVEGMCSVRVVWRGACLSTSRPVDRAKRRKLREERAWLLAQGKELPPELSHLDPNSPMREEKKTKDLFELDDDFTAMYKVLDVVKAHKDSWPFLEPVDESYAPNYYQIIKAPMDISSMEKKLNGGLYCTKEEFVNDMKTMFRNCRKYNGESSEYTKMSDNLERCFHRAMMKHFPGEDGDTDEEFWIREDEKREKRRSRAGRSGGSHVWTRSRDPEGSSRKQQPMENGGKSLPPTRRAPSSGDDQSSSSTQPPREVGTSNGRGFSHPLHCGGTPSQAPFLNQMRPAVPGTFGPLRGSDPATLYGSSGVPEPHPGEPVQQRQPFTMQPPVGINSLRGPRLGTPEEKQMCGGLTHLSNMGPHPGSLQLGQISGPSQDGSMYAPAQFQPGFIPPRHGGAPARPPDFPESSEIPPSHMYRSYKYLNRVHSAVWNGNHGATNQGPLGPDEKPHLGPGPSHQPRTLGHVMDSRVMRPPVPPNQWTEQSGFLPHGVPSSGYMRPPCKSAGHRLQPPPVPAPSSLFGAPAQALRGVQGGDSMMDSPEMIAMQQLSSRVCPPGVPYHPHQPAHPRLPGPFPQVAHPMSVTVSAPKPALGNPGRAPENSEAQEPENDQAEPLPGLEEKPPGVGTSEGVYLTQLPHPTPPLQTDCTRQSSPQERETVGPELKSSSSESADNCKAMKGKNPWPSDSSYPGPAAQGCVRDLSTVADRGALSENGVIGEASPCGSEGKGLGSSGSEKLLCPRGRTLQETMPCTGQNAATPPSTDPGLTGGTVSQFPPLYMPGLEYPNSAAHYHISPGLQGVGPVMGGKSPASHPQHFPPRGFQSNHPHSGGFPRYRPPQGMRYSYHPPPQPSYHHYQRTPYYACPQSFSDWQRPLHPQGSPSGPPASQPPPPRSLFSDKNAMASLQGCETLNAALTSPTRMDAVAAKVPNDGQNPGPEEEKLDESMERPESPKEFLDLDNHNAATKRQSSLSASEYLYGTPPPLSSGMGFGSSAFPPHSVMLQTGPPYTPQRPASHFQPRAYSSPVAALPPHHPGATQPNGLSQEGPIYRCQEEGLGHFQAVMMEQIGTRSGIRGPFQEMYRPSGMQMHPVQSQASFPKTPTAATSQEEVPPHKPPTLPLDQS

[7] = target: Bromodomain-containing protein 4 (Homo sapiens, UniProt O60885); test: Selectivity interaction (Bromodomain panel (DSF assay)) EUB0000201c BRD4
[8] = target: SWI/SNF-related matrix-associated actin-dependent regulator of chromatin subfamily A member 4 (Homo sapiens) (UniProt P51532); test: Selectivity interaction (Bromodomain panel (DSF assay)) EUB0000201c SMARCA4
[9] = target: T4, Bromodomain-containing protein 7 (Homo sapiens) (UniProt Q9NPI1); test: Selectivity interaction (Bromodomain panel (DSF assay)) EUB0000201c BRD7
T4 sequence (whole entry): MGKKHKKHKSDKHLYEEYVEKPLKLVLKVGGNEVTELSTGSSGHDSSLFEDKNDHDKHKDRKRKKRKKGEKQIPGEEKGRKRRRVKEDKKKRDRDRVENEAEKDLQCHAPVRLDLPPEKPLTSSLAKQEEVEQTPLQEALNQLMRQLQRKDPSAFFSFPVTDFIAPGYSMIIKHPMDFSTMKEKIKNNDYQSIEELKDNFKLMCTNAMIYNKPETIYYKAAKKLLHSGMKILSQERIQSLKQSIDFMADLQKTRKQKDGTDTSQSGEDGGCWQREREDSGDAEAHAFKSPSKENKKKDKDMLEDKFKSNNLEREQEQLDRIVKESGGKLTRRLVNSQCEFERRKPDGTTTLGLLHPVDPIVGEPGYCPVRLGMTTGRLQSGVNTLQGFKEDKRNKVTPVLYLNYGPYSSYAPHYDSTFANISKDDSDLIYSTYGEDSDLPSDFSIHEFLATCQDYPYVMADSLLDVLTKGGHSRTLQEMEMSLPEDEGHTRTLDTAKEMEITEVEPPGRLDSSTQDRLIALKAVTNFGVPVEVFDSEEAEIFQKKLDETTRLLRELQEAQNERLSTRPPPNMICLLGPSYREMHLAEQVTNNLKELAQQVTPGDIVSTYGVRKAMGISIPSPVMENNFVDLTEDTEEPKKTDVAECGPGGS

[10] = target: Transcription initiation factor TFIID subunit 1 (Homo sapiens, UniProt P21675); test: Selectivity interaction (Bromodomain panel (DSF assay)) EUB0000201c TAF1
[11] = target: T3, Chromatin remodeling regulator CECR2; test: (§1) Selectivity interaction (Bromodomain panel (DSF assay)) EUB0000201c CECR2
Target sequence in this assay (Q9BXF3 whole entry, looked up): as the sequence (Q9BXF3 whole entry) above

[12] = target: T3, Chromatin remodeling regulator CECR2; test: as §1; remark: listed apart in the source
Target sequence in this assay (Q9BXF3 whole entry, looked up): as the sequence (Q9BXF3 whole entry) above

[13] = target: T5, Nucleosome-remodeling factor subunit BPTF (Homo sapiens, UniProt Q12830); test: Selectivity interaction (Bromodomain panel (DSF assay)) EUB0000201c BPTF
[14] = target: T6, Histone acetyltransferase KAT2A (Homo sapiens, UniProt Q92830); test: Selectivity interaction (BROMOscan™ panel (DiscoverX)) EUB0000253b KAT2A
T6 sequence (Q92830 whole entry): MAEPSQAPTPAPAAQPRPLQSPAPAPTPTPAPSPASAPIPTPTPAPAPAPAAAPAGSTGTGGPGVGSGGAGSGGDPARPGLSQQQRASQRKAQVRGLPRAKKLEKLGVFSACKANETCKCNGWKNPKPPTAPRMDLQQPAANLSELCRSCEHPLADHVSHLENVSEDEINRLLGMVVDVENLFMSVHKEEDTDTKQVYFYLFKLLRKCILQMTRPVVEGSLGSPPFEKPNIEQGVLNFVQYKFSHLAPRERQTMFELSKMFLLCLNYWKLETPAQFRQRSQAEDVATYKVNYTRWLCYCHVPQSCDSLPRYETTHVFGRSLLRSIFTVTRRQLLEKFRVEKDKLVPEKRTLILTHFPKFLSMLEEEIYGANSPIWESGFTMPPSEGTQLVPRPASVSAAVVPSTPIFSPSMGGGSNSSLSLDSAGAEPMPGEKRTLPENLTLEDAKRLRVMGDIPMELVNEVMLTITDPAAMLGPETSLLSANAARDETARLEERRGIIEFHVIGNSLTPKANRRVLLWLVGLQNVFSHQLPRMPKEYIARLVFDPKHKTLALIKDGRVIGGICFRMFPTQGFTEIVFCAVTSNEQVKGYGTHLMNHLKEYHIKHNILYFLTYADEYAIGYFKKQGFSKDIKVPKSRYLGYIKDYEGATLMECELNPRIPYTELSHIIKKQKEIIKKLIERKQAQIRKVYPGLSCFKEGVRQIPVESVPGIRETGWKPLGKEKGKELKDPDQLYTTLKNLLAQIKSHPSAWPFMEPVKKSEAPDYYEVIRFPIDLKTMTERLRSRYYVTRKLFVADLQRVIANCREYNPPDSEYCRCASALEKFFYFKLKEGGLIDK

[15] = target: D(3) dopamine receptor (Homo sapiens, UniProt P35462); test: Selectivity interaction (NIBR principial panel (12 GPCRs, 3 nuclear receptors, 3 transporters, and 7 other enzymes)) EUB0000253b DRD3
Sequence of D(3) dopamine receptor (P35462 whole entry): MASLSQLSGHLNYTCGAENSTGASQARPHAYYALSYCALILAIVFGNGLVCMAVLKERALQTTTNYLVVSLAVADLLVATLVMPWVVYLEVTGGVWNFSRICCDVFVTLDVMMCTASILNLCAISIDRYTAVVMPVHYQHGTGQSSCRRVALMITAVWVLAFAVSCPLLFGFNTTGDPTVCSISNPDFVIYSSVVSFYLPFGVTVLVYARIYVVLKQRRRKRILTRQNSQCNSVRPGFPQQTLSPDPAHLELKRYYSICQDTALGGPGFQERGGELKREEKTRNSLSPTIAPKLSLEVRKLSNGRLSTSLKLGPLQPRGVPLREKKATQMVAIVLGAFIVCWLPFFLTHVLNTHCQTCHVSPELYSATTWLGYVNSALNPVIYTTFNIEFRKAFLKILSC

[16] = target: T7, Adenosine receptor A3 (Homo sapiens, UniProt P0DMS8); test: Selectivity interaction (NIBR principial panel (12 GPCRs, 3 nuclear receptors, 3 transporters, and 7 other enzymes)) EUB0000253b ADORA3
T7 sequence (P0DMS8 whole entry): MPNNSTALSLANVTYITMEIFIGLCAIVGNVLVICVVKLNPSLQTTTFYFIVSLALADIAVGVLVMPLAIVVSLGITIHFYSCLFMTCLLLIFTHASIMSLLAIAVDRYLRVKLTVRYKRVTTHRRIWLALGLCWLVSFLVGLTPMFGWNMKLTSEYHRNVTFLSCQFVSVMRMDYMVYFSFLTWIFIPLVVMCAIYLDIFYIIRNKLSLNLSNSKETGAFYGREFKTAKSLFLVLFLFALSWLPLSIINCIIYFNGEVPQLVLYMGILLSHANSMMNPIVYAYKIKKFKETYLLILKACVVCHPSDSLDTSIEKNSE

[17] = target: T8, Histone acetyltransferase KAT2B (Homo sapiens, UniProt Q92831); test: Selectivity interaction (BROMOscan™ panel (DiscoverX)) EUB0000253b KAT2B
Target sequence in this assay (Q92831 whole entry): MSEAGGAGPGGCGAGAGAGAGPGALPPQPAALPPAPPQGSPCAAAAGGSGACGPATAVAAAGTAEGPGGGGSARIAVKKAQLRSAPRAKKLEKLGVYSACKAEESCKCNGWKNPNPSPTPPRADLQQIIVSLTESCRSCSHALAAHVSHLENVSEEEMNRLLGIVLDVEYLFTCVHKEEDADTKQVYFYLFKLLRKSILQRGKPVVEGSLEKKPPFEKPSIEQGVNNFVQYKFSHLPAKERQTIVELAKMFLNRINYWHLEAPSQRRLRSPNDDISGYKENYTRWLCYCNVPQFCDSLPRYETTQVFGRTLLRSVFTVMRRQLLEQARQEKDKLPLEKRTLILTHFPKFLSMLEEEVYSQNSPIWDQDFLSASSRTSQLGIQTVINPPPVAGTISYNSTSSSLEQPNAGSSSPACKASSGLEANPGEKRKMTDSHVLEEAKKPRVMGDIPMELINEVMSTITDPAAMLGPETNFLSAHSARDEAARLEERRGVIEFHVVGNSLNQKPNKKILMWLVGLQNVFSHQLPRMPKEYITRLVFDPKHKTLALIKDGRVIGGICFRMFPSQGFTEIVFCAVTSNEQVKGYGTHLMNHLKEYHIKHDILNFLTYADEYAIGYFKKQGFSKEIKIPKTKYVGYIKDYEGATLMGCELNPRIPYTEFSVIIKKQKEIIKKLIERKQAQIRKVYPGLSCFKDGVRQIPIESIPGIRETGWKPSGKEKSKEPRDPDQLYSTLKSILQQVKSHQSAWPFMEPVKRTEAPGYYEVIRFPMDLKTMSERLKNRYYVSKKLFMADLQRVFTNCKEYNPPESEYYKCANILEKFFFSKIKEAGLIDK

[18] = target: T8, Histone acetyltransferase KAT2B; test: Selectivity interaction (NanoBRET assay (HEK293T cells)) EUB0000253b KAT2B
Target sequence in this assay (Q92831 whole entry): as above

[19] = target: T3, Chromatin remodeling regulator CECR2; test: Selectivity interaction (BROMOscan™ panel (DiscoverX)) EUB0000253b CECR2
Target sequence in this assay (Q9BXF3 whole entry): as the sequence (Q9BXF3 whole entry) above

[20] = target: T4, Bromodomain-containing protein 7 (Homo sapiens); test: Selectivity interaction (Bromodomain panel (DSF assay)) EUB0000253b BRD7
[21] = target: T5, Nucleosome-remodeling factor subunit BPTF
[22] = target: Histamine H3 receptor (Homo sapiens, UniProt Q9Y5N1); test: Selectivity interaction (NIBR principial panel (12 GPCRs, 3 nuclear receptors, 3 transporters, and 7 other enzymes)) EUB0000253b HRH3
[23] = target: T8, Histone acetyltransferase KAT2B; test: Selectivity interaction (Bromodomain panel (DSF assay)) EUB0000253b KAT2B
Target sequence in this assay (Q92831 whole entry, looked up): as the sequence (Q92831 whole entry) above

[24] = target: T3, Chromatin remodeling regulator CECR2; test: Selectivity interaction (NanoBRET assay (HEK293T cells)) EUB0000253b CECR2
Target sequence in this assay (Q9BXF3 whole entry): as the sequence (Q9BXF3 whole entry) above

[25] = target: T6, Histone acetyltransferase KAT2A; test: Selectivity interaction (NanoBRET assay (HEK293T cells)) EUB0000253b KAT2A
[26] = target: T5, Nucleosome-remodeling factor subunit BPTF; remark: listed apart in the source
[27] = target: T3, Chromatin remodeling regulator CECR2; test: Selectivity interaction (Bromodomain panel (DSF assay)) EUB0000253b CECR2
Target sequence in this assay (Q9BXF3 whole entry, looked up): as the sequence (Q9BXF3 whole entry) above

[28] = target: Muscarinic acetylcholine receptor M1 (Homo sapiens, UniProt P11229); test: Selectivity interaction (Receptor panel (Novartis) ) EUB0000164c CHRM1
Sequence of Muscarinic acetylcholine receptor M1 (P11229 whole entry): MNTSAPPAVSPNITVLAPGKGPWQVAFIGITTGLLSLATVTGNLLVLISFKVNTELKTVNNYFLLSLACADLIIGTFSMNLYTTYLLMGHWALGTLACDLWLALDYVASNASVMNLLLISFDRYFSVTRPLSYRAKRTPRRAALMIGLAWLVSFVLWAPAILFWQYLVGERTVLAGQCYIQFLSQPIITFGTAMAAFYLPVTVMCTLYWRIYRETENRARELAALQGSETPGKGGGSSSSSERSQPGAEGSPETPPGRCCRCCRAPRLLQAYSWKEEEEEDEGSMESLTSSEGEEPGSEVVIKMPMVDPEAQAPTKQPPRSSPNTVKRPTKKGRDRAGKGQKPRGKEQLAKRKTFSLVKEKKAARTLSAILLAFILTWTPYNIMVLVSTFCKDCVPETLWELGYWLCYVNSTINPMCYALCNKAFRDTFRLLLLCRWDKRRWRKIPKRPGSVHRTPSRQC

[29] = target: Tyrosine-protein kinase BAZ1B (Homo sapiens) (UniProt Q9UIG0); test: Selectivity interaction (Bromodomain panel (DSF assay)) EUB0000164c BAZ1B
[30] = target: Histamine H1 receptor (Homo sapiens, UniProt P35367); test: Selectivity interaction (Receptor panel (Novartis) ) EUB0000164c HRH1
Sequence of Histamine H1 receptor (P35367 whole entry): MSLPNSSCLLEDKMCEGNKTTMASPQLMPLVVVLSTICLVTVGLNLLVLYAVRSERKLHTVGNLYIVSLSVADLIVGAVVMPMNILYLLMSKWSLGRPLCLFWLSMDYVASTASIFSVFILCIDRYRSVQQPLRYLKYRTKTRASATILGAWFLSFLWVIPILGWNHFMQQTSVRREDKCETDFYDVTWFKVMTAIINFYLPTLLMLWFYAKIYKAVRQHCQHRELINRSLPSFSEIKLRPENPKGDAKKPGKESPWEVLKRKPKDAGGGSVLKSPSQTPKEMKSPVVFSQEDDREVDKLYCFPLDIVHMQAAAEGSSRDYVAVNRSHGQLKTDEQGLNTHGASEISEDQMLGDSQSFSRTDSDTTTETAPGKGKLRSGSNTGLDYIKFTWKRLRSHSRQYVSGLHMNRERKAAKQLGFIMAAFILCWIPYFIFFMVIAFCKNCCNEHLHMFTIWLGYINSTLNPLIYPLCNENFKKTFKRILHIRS

% of inhibition [1]: 22.5%
IC50 [3]: > 10 µM
% of inhibition [4]: 0.3%
IC50 [5]: > 10 µM
SMILES: OCCn1cc(-c2cnc3nnn(Cc4ccc5ncccc5c4)c3n2)cn1 [PF-04217903]
% of inhibition [2]: 0.4%

EC50 [6]: 0.1 µM
dTm [7]: < 2 K
dTm [8]: < 2 K
dTm [9]: < 2 K
dTm [10]: < 2 K
dTm [11]: 12.5 K
dTm [12]: 15.5 K
dTm [13]: < 2 K
SMILES: CCCS(=O)(=O)c1nc(NC2CC2)cc(-c2ccc3c(ccn3C3CC(C)(C)NC(C)(C)C3)c2)n1

Kd [14]: 0.062 µM
IC50 [15]: 3.5 µM
IC50 [16]: 4.9 µM
Kd [17]: 0.074 µM
IC50 [18]: > 10 µM
Kd [19]: 0.066 µM
dTm [20]: 1.95 K
IC50 [21]: 0.03 µM
IC50 [22]: 4 µM
dTm [23]: 1.53 K
IC50 [24]: > 10 µM
IC50 [25]: > 10 µM
dTm [26]: 6.16 K
dTm [27]: 2.48 K
SMILES: Cc1c(Nc2ccc(S(=O)(=O)N3CCN(C)CC3)cc2F)nc2ccc(-c3cnn(C4CC4)c3)cn2c1=O

IC50 [28]: 13 µM
dTm [29]: 0.7 K
IC50 [30]: 13 µM
SMILES: CC(C)NC(=O)N1CC[C@H](NC2=Nc3cc(F)ccc3N(CC(F)F)c3ccc(Cl)cc32)C1
